Data: patent EP4722207A1, “OXOISOINDOLINYL-SUBSTITUTED TETRAHYDROPYRIMIDINEDIONE DERIVATIVE AND USE THEREOF” (Gluetacs Therapeutics (Shanghai) Co., Ltd., priority 2023, dated 2024)

Assays:
Assay type in all cases: cell-based
Conditions in all cases: compounds at 50 nM and 500 nM, 24 hours
WEE1 = biological target: T1, WEE1 (Homo sapiens, UniProt P30291+Q96SW2); assay: Western-blot assay, substrate protein degradation in hPBMCs: WEE1
T1 construct: effects of the compounds of the present disclosure on the expression of target proteins in cells; endogenous in cells; host or cells: human PBMCs (hPBMCs)
T1 sequence (P30291 whole entry): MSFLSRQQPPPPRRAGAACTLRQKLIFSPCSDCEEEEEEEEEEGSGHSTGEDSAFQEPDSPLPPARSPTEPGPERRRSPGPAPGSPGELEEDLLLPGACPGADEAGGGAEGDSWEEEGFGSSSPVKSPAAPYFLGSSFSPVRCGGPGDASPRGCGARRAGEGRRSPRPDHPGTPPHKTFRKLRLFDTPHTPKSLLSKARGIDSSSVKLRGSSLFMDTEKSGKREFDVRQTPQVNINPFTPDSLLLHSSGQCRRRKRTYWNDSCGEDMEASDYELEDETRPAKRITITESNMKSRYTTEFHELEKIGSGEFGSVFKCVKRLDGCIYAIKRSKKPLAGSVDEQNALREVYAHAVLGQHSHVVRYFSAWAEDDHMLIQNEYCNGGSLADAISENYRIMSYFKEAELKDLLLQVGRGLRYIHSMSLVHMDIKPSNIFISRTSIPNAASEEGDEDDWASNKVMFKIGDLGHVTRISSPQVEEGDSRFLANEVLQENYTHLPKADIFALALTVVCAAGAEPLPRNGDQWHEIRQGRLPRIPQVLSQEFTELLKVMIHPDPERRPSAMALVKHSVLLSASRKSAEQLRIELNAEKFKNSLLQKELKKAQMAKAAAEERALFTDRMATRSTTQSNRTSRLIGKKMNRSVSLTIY
T1 sequence (Q96SW2 whole entry): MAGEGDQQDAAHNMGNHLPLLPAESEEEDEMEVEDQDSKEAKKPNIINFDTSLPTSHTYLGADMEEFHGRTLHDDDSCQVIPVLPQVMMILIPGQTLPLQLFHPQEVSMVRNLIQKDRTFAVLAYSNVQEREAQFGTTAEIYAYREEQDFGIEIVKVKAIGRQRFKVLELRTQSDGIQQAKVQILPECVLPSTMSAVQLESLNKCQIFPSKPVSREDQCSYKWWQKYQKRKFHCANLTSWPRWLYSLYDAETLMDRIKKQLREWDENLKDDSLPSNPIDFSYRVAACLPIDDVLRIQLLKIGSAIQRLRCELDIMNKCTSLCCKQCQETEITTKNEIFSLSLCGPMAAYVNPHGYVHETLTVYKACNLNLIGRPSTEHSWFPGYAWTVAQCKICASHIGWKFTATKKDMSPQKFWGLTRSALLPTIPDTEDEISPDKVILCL
T1 sequence (Q16531 whole entry partner): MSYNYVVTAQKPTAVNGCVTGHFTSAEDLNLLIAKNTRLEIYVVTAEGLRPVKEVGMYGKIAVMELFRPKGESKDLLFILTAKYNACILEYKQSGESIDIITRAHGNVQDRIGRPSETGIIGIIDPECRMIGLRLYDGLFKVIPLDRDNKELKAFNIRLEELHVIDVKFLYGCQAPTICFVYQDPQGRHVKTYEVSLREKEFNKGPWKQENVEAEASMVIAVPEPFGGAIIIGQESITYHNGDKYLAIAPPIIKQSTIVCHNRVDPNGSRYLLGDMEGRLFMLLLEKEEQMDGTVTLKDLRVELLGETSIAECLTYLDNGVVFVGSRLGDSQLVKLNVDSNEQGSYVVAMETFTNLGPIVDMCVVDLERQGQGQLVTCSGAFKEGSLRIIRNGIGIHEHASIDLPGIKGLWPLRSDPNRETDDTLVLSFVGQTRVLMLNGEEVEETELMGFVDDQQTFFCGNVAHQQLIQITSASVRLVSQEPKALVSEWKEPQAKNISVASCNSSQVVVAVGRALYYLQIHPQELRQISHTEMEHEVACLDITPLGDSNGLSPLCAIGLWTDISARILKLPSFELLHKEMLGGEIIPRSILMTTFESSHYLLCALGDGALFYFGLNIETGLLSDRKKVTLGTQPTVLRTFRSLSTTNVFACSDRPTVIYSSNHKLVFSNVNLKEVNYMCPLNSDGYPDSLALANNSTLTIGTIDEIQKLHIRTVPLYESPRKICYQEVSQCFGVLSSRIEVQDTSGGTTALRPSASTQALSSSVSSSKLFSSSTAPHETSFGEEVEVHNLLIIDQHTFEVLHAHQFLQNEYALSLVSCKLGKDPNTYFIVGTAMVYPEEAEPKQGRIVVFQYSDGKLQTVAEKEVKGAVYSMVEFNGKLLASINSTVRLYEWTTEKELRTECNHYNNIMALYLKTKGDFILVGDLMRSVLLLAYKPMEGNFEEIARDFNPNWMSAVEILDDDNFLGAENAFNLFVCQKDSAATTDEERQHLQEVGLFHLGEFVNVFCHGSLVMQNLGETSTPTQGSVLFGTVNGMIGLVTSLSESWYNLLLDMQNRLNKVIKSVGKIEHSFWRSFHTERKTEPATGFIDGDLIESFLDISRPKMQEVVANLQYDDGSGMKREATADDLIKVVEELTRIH
Protocol: (§1) Conventional Western blot assay was performed to evaluate the effects of the compounds of the present disclosure on the expression of target proteins in cells. • (1) Cell Seeding and Protein Harvesting: Human peripheral blood mononuclear cells (hPBMCs) at a density of 1x10^6 cells/mL were thawed according to the PBMC Recovery Protocol (Milecell Biotechnologies Inc, Shanghai). […] After 24 hours of compounds treatment, cells were harvested and lysed in RIPA protein lysate containing protease inhibitors on ice for 30 min, followed by centrifugation. The supernatant was aspirated as the extracted total cell protein. The protein concentration of the supernatant was determined using the conventional BCA (Bicinchoninic Acid) assay. • (2) To the collected supernatant, 5X SDS sample loading buffer was added, followed by denaturation at 95°C for 5 minutes. The denatured samples were then separated by SDS-PAGE electrophoresis on a polyacrylamide gel. Proteins were transferred to a nitrocellulose membrane (0.45 µm NC membrane), blocked with blocking buffer at room temperature for 1 hour, and subjected to antibody incubation and development procedures according to the antibody manufacturer's instructions (Cell Signaling Technology).
(§2) Half-Maximal Degradation Concentration value (the drug concentration required for degrading proteins by 50%, abbreviated as DC50) reads method: comparing the grayscale values of Western blot bands from drug-treated samples with those from blank DMSO-treated controls, and identifying the drug concentration range at which the grayscale value is half that of the DMSO-treated control bands.
(§3) DC50 values can be calculated using ImageJ software to measure grayscale values of Western blot bands from drug-treated samples. The concentration-response curve is fitted to estimate the drug concentration corresponding to half the grayscale value.
(§4) Target protein remaining (%) refers to the percentage of target protein remaining in cells after treatment with protein degrader compounds.
(§5) Calculation method for target protein remaining (%): Use ImageJ software to measure grayscale values of Western blot bands from drug (protein degrader)-treated samples. The grayscale value of drug-treated bands is divided by that of internal control protein bands, and the resulting quotient is normalized to obtain the relative percentage of remaining target protein after protein degrader treatment. Target protein degradation rate(%) = 1−target protein remaining(%). [formula]

IKZF1 = biological target: T2, IKZF1 (Homo sapiens, UniProt Q13422+Q96SW2); assay: Western-blot assay, substrate protein degradation in hPBMCs: IKZF1
T2 construct: effects of the compounds of the present disclosure on the expression of target proteins in cells; endogenous in cells; host or cells: human PBMCs (hPBMCs)
T2 sequence (Q13422 whole entry): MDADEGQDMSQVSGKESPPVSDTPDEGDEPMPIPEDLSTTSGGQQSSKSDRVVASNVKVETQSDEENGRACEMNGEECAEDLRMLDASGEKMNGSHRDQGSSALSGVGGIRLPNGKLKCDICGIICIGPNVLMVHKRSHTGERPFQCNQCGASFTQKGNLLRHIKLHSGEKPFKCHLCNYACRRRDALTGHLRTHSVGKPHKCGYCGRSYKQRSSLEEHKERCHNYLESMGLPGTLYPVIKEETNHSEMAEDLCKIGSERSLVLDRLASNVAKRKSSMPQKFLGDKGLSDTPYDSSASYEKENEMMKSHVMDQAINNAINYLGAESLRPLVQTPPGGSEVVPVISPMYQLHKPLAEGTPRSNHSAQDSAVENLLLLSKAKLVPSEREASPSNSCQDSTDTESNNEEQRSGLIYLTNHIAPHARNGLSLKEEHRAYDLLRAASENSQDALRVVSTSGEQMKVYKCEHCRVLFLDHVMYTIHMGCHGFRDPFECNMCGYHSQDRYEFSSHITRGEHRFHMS
T2 sequence (Q96SW2 whole entry): as the sequence (Q96SW2 whole entry) above
T2 sequence (Q16531 whole entry partner): as the sequence (Q16531 whole entry partner) above
Protocol: as §1, §2, §3, §4, §5

IKZF2 = biological target: T3, IKZF2 (Homo sapiens, UniProt Q96SW2+Q9UKS7); assay: Western-blot assay, substrate protein degradation in hPBMCs: IKZF2
T3 construct: effects of the compounds of the present disclosure on the expression of target proteins in cells; endogenous in cells; host or cells: human PBMCs (hPBMCs)
T3 sequence (Q9UKS7 whole entry): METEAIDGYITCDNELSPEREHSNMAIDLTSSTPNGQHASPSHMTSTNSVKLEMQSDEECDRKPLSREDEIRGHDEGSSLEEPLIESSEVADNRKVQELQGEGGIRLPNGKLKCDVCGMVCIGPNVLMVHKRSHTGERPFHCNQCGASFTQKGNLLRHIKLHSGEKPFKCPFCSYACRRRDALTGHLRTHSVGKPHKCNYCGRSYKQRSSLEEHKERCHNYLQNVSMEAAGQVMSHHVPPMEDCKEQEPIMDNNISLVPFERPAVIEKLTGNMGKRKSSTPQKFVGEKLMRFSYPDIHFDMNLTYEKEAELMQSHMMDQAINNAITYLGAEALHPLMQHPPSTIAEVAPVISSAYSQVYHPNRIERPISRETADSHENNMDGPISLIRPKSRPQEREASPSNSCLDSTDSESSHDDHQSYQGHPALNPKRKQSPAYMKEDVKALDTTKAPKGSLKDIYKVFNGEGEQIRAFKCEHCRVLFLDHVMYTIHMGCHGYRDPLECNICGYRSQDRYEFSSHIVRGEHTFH
T3 sequence (Q96SW2 whole entry): as the sequence (Q96SW2 whole entry) above
T3 sequence (Q16531 whole entry partner): as the sequence (Q16531 whole entry partner) above
Protocol: as §1, §2, §3, §4, §5

IKZF3 = biological target: T4, IKZF3 (Homo sapiens, UniProt Q96SW2+Q9UKT9); assay: Western-blot assay, substrate protein degradation in hPBMCs: IKZF3
T4 construct: effects of the compounds of the present disclosure on the expression of target proteins in cells; endogenous in cells; host or cells: human PBMCs (hPBMCs)
T4 sequence (Q9UKT9 whole entry): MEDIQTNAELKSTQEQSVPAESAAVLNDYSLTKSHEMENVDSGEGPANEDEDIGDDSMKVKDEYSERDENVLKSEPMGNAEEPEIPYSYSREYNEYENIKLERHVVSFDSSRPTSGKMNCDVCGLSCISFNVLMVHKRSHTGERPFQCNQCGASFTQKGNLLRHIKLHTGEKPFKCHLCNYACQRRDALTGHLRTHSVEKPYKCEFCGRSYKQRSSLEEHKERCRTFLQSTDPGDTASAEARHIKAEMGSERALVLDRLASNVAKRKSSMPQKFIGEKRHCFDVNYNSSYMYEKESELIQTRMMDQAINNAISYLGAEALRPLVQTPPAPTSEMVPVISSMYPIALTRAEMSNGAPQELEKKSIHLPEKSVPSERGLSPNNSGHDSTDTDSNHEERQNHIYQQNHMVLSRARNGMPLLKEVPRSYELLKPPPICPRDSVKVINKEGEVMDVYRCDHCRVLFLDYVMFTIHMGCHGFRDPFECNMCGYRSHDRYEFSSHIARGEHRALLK
T4 sequence (Q96SW2 whole entry): as the sequence (Q96SW2 whole entry) above
T4 sequence (Q16531 whole entry partner): as the sequence (Q16531 whole entry partner) above
Protocol: as §1, §2, §3, §4, §5

CK1α = biological target: T5, CK1α (Homo sapiens, UniProt P48729+Q96SW2); assay: Western-blot assay, substrate protein degradation in hPBMCs: CK1α
T5 construct: effects of the compounds of the present disclosure on the expression of target proteins in cells; endogenous in cells; host or cells: human PBMCs (hPBMCs)
T5 sequence (P48729 whole entry): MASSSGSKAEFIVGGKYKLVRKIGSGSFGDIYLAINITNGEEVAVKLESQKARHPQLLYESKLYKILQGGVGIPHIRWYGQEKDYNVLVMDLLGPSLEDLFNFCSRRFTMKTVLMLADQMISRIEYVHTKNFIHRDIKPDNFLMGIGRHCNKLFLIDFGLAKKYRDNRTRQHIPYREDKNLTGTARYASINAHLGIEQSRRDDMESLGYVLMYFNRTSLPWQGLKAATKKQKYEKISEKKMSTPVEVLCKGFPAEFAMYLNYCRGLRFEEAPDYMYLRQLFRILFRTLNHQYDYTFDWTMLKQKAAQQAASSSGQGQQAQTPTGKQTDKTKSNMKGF
T5 sequence (Q96SW2 whole entry): as the sequence (Q96SW2 whole entry) above
T5 sequence (Q16531 whole entry partner): as the sequence (Q16531 whole entry partner) above
Protocol: as §1, §2, §3, §4, §5

GSPT1 = biological target: T6, GSPT1 (Homo sapiens, UniProt P15170+Q96SW2); assay: Western-blot assay, substrate protein degradation in hPBMCs: GSPT1
T6 construct: effects of the compounds of the present disclosure on the expression of target proteins in cells; endogenous in cells; host or cells: human PBMCs (hPBMCs)
Protocol: as §1, §2, §3, §4, §5

Row | SMILES | WEE1 substrate protein remaining % (WEE1) | IKZF1 substrate protein remaining % (IKZF1) | IKZF2 substrate protein remaining % (IKZF2) | IKZF3 substrate protein remaining % (IKZF3) | CK1α substrate protein remaining % (CK1α) | GSPT1 substrate protein remaining % (GSPT1)
1 | Cc1cc(N2CCN(Cc3ccc4c(c3)CN(N3CCC(=O)NC3=O)C4=O)CC2)cs1 [GT-05087, 1-(5-((4-(5-methylthiophen-3-yl)piperazin-1-yl)methyl)-1-oxoisoindolin-2-yl)dihydropyrimidine-2,4(1H,3H)-dione] | B ("B" is defined as 80%< substrate protein remaining %≤ 100%) | B ("B" is defined as 80%< substrate protein remaining %≤ 100%) | B ("B" is defined as 80%< substrate protein remaining %≤ 100%) | B ("B" is defined as 80%< substrate protein remaining %≤ 100%) | B ("B" is defined as 80%< substrate protein remaining %≤ 100%) | A ("A" is defined as 0% ≤ substrate protein remaining % ≤ 80%)
2 | Cc1cccc(N2CCN(Cc3ccc4c(c3)CN(N3CCC(=O)NC3=O)C4=O)CC2)n1 [GT-05125, 1-(5-((4-(6-methylpyridin-2-yl)piperazin-1-yl)methyl)-1-oxoisoindolin-2-yl)dihydropyrimidine-2,4(1H,3H)-dione] | A ("A" is defined as 0% ≤ substrate protein remaining % ≤ 80%) | A ("A" is defined as 0% ≤ substrate protein remaining % ≤ 80%) | B ("B" is defined as 80%< substrate protein remaining %≤ 100%) | A ("A" is defined as 0% ≤ substrate protein remaining % ≤ 80%) | A ("A" is defined as 0% ≤ substrate protein remaining % ≤ 80%) | A ("A" is defined as 0% ≤ substrate protein remaining % ≤ 80%)
3 | O=C1CCN(N2Cc3cc(CN4CCN(c5cc(Cl)ccn5)CC4)ccc3C2=O)C(=O)N1 [GT-05128, 1-(5-((4-(4-chloropyridin-2-yl)piperazin-1-yl)methyl)-1-oxoisoindolin-2-yl)dihydropyrimidine-2,4(1H,3H)-dione] | A ("A" is defined as 0% ≤ substrate protein remaining % ≤ 80%) | A ("A" is defined as 0% ≤ substrate protein remaining % ≤ 80%) | A ("A" is defined as 0% ≤ substrate protein remaining % ≤ 80%) | A ("A" is defined as 0% ≤ substrate protein remaining % ≤ 80%) | A ("A" is defined as 0% ≤ substrate protein remaining % ≤ 80%) | A ("A" is defined as 0% ≤ substrate protein remaining % ≤ 80%)
4 | O=C1CCN(N2Cc3cc(CN4CCN(c5ncccc5F)CC4)ccc3C2=O)C(=O)N1 [GT-05129, 1-(5-((4-(3-fluoropyridin-2-yl)piperazin-1-yl)methyl)-1-oxoisoindolin-2-yl)dihydropyrimidine-2,4(1H,3H)-dione] | A ("A" is defined as 0% ≤ substrate protein remaining % ≤ 80%) | A ("A" is defined as 0% ≤ substrate protein remaining % ≤ 80%) | A ("A" is defined as 0% ≤ substrate protein remaining % ≤ 80%) | A ("A" is defined as 0% ≤ substrate protein remaining % ≤ 80%) | A ("A" is defined as 0% ≤ substrate protein remaining % ≤ 80%) | A ("A" is defined as 0% ≤ substrate protein remaining % ≤ 80%)
5 | O=C1CCN(N2Cc3cc(CN4CCN(c5cccc(F)n5)CC4)ccc3C2=O)C(=O)N1 [GT-05130, 1-(5-((4-(6-fluoropyridin-2-yl)piperazin-1-yl)methyl)-1-oxoisoindolin-2-yl)dihydropyrimidine-2,4(1H,3H)-dione] | A ("A" is defined as 0% ≤ substrate protein remaining % ≤ 80%) | A ("A" is defined as 0% ≤ substrate protein remaining % ≤ 80%) | A ("A" is defined as 0% ≤ substrate protein remaining % ≤ 80%) | A ("A" is defined as 0% ≤ substrate protein remaining % ≤ 80%) | A ("A" is defined as 0% ≤ substrate protein remaining % ≤ 80%) | A ("A" is defined as 0% ≤ substrate protein remaining % ≤ 80%)
6 | O=C1CCN(N2Cc3cc(CN4CCN(c5ccc(F)cn5)CC4)ccc3C2=O)C(=O)N1 [GT-05131, 1-(5-((4-(5-fluoropyridin-2-yl)piperazin-1-yl)methyl)-1-oxoisoindolin-2-yl)dihydropyrimidine-2,4(1H,3H)-dione] | A ("A" is defined as 0% ≤ substrate protein remaining % ≤ 80%) | A ("A" is defined as 0% ≤ substrate protein remaining % ≤ 80%) | A ("A" is defined as 0% ≤ substrate protein remaining % ≤ 80%) | A ("A" is defined as 0% ≤ substrate protein remaining % ≤ 80%) | A ("A" is defined as 0% ≤ substrate protein remaining % ≤ 80%) | A ("A" is defined as 0% ≤ substrate protein remaining % ≤ 80%)
7 | O=C1CCN(N2Cc3cc(CN4C5CC4CN(c4cccc(Cl)c4Cl)C5)ccc3C2=O)C(=O)N1 [GT-05162, 1-(5-((3-(2,3-dichlorophenyl)-3,6-diazabicyclo[3.1.1]heptan-6-yl)methyl)-1-oxoisoindolin-2-yl)dihydropyrimidine-2,4(1H,3H)-dione] | B ("B" is defined as 80%< substrate protein remaining %≤ 100%) | B ("B" is defined as 80%< substrate protein remaining %≤ 100%) | B ("B" is defined as 80%< substrate protein remaining %≤ 100%) | A ("A" is defined as 0% ≤ substrate protein remaining % ≤ 80%) | B ("B" is defined as 80%< substrate protein remaining %≤ 100%) | A ("A" is defined as 0% ≤ substrate protein remaining % ≤ 80%)
8 | O=C1CCN(N2C(=O)c3ccc(CN4CCC(N(c5ccccc5)c5ccccc5)CC4)cc3C2=O)C(=O)N1 [GT-05177, 2-(2,4-dioxotetrahydropyrimidin-1(2H)-yl)-5-((4-(diphenylamino)piperidin-1-yl)methyl)isoindoline-1,3-dione] | B ("B" is defined as 80%< substrate protein remaining %≤ 100%) | B ("B" is defined as 80%< substrate protein remaining %≤ 100%) | B ("B" is defined as 80%< substrate protein remaining %≤ 100%) | B ("B" is defined as 80%< substrate protein remaining %≤ 100%) | B ("B" is defined as 80%< substrate protein remaining %≤ 100%) | A ("A" is defined as 0% ≤ substrate protein remaining % ≤ 80%)
9 | O=C1CCN(N2C(=O)c3ccc(CN4CCC(Nc5ccccc5-c5ccc(Cl)cc5)CC4)cc3C2=O)C(=O)N1 [GT-05179, 5-((4-((4'-chloro-[1,1'-biphenyl]-2-yl)amino)piperidin-1-yl)methyl)-2-(2,4-dioxotetrahydropyrimidin-1(2H)-yl)isoindoline-1,3-dione] | A ("A" is defined as 0% ≤ substrate protein remaining % ≤ 80%) | B ("B" is defined as 80%< substrate protein remaining %≤ 100%) | B ("B" is defined as 80%< substrate protein remaining %≤ 100%) | B ("B" is defined as 80%< substrate protein remaining %≤ 100%) | B ("B" is defined as 80%< substrate protein remaining %≤ 100%) | B ("B" is defined as 80%< substrate protein remaining %≤ 100%)
10 | CC1(C)CCC(CN2CCN(Cc3ccc4c(c3)C(=O)N(N3CCC(=O)NC3=O)C4=O)CC2)=C(c2ccc(Cl)cc2)C1 [GT-05180, 5-((4-((4'-chloro-5,5-dimethyl-3,4,5,6-tetrahydro-[1,1'-biphenyl]-2-yl)methyl)piperazin-1-yl)methyl)-2-(2,4-dioxotetrahydropyrimidin-1(2H)-yl)isoindoline-1,3-dione] | A ("A" is defined as 0% ≤ substrate protein remaining % ≤ 80%) | B ("B" is defined as 80%< substrate protein remaining %≤ 100%) | B ("B" is defined as 80%< substrate protein remaining %≤ 100%) | B ("B" is defined as 80%< substrate protein remaining %≤ 100%) | B ("B" is defined as 80%< substrate protein remaining %≤ 100%) | B ("B" is defined as 80%< substrate protein remaining %≤ 100%)
